“Also recorded” adds a separate entry of the source. Square brackets hold non-standard residues; d marks the D form. Ends that are not written are not given here. Hyp = O=C(O)[C@@H]1C[C@@H](O)CN1

For assay [1], the system named is RBL-2H3 cells. The experiment in a line: Degranulation assay, RBL-2H3 cells primed with monoclonal IgE. In kind it is cell-based, rat. The note with it: valency of 18, FIG. 19. The protocol: Cell Culture. RBL-2H3 cells were cultured in Minimum Essential Media (Gibco) with 10% fetal bovine serum (Gemini BioProducts) as previously described.^25
Degranulation Assays. RBL degranulation assays were performed as previously described, expect using nanoallergens as the allergen.^23 Additionally, RBL cells were incubated with 1 μg/mL of total IgE overnight prior to nanoallergen incubation using 75% IgE^cyclinA as an orthogonal IgE (i.e. an IgE specific to a molecule, cyclinA, which is not used in this study) to simulate physiological conditions for all degranulation assays.^21

In assay [2] the target is IgE^dansyl. The experiment in a line: Fluorescence quenching titration of dansyl conjugates. The note with it: monovalent affinity of hapten-amino acid conjugate. The assay is classed as binding. How it is done:
Fluorescence Quenching Assay. The binding constants for dansyl conjugates were determined as previously described.^27 Briefly, Dansyl conjugates were titrated into wells containing 15 nM IgE^dansyl and then the flourscence read at various concentration points (Ex=280 nm, Em=335).

The target of assay [3] is IgE^dansyl. The experiment in a line: Fluorescence quenching binding of HBI molecules to IgE^dansyl. The protocol: Fluorescence Quenching. In order to determine binding of HBI molecules to respective antibodies, we observed the quenching of tryptophan resides using a method previously described. Briefly, either IgE^dansyl or IgG^Penicillin was diluted into a non-binding 96-well dish at 40 nM in PBS. Then, HBI molecules which contained either a dansyl or DNP group were titrated into well and fluorescence (Ex. 280 nm, Em. 335) was observed using a SpectraMax M2 spectrophotometer. PBS and free tryptamine diluted to similar initial fluorescence values were used as controls to account for HBI fluorescence and non-specific quenching respectively.

For assay [4], the system named is RBL-SX38 cells. The experiment in a line: Degranulation assay, RBL-SX38 cells primed with peanut allergy patient sera. The assay is classed as cell-based, rat. The note with it: for degranulation response: 2% epitope-lipid nanoallergens, single patient serum (FIG. 4); for Immuno-reactivity: epitope-lipid loaded in nanoallergens, patient sera; for effect on Ara h 2 triggered degranulation: 100 μM free epitope 2, FIG. 13. The protocol: Cell Culture. RBL-SX38 cells were a generous gift from Dr. Jean-Pierre Kinet from Harvard University. RBL-SX38 cells were cultured in Minimum Essential Media (Gibco) with 10% fetal bovine serum (Gemini BioProducts, Sacramento Calif.) and 1.2 mg/mL of G418 salt (Sigma) as previously described.
Degranulation Assays. Degranulation assays were performed as previously described using nanoallergens as the allergen. RBL cells were plated into 96-well dishes for 24 hrs and then incubated with 10% of human sera in cell culture media for an additional 24 hrs prior to the degranulation assay.
Using the mast-like rat basophil leukemia SX38 (RBL) cell line that has been transfected to express the human FcεRI on their surface, applicants can use peanut reactive patient sera in applicants' cellular degranulation assays (FIG. 8). The RBL cells become sensitized when IgEs from the patient sera (including those reactive to peanuts) tightly bind to the high affinity FcεRI. After sensitization, applicants added varying concentrations of either Ara h 2 or nanoallergens with 2% of epitope 2 lipid loaded into the liposome.

The test system of assay [5] is Bruton's tyrosine kinase (BTK). The assay can be described thus: Western blot of BTK phosphorylation in stimulated RBL-SX38 cells. The note with it: FIG. 3. The assay is classed as cell-based, rat. The protocol:
Western Blot. Stimulated RBL cells were analyzed for intracellular activity with a Western blotting technique previously described. RBL-SX38 cells were plated at approximately 0.5×10^6 cells per mL into a 3 mL dish for 24 hours. Cells were then incubated in 10% patient serum in cell culture media for 24 hours. Cells were then washed with Tyrodes buffer and incubated with Tyrodes from 30 minutes at 37° C. Ara h 2 or nanoallergens were then added at varying concentrations and incubated at 37° C. for 3 minutes. Cells were washed with ice cold PBS, then incubated in RIPA with phosphatase inhibitor lysis buffer, scrapped and sonicated for a minute intervals over the course of 30 minutes on ice. Lysates were then spun down at 15000 RPM for 10 minutes and their protein concentration determined by Bradford Assay. Laemmli buffer and PBS were added to all lysates so that their protein concentration was 0.5 mg/mL or would be 0.5 mg/mL prior to immunoprecipitation. Samples were boiled for 5 minutes; centrifuged and 20 uL of each was added to a 10% SDS-PAGE gel. Samples ran on the gel for 1 hr, were transferred to nitrocellulose paper for 1.5 hrs, and blocked with 5% BSA in TBS-T for 1 hr. […] The membranes were washed, and incubated in with Clarity™ Western ECL Blotting Substrate (Bio-Rad) for 5 minutes. Bands were exposed onto Kodak Chemiluminescence Film for times ranging from 1-30 minutes.
For orientation: A western blot detects proteins with antibodies after separation by electrophoresis.

The test system of assay [6] is patient IgEs. The assay can be described thus: ELISA binding assay with patient sera. The note with it: for EC50: patient serum 0, plate coated with anti-IgE IgG. Set-up: species or system human. How it is done:
ELISA Assay. A high binding 96-well plate was incubated with anti-Human IgE in Carbonate-Bicarbonate buffer (Sigma) at a concentration of 3 nM for 16 hours at 4° C. Plate was washed with washing buffer (PBS with 0.5% tween 20) and then blocked with blocking buffer (5% BSA in PBS with 0.1% tween 20) for 1 hr at room temperature. Plate was washed with automatic plate washer (AquaMax 2000), then varying concentrations of either Ara h 2-Biotin (Indoors Biotechnologies) or FITC-peptide 2 conjugate in blocking buffer for 1 hour. Plate was washed again and then either streptavidin-HRP (1:5000 dilution) or anti-FITC HRP IgG (1:5000 dilution) was added in blocking buffer. After washing, Amplex Red substrate was added (Invitrogen) and plate fluorescence read at 5 minute intervals according to manufacturers instructions.
(An ELISA detects its analyte on a solid surface through an enzyme-linked reagent.)

The conditions of assay [7]: various sera from highly allergic individuals; cited from earlier work.
Setting [8] is: all four patient sera, 2% loaded, FIG. 6.

For “DNP-BSA: DNP groups covalently bonded to bovine serum albumin, valency of 18, used as a control”, in assay [1], it took 26 ± 9 nM to reach a half-maximal effect (EC50).

As for Dansyl, the values for the dissociation constant Kd in assay [2] and in assay [3] were 147 nM and 29.9 ± 10 nM, respectively.

Take “Epitope-Lipid 1: Ara h 2 epitope NLRPCEQHLMQKIQRD (38-53) lipid conjugate, tested loaded at 2% in nanoallergens (also: lipid conjugate, site not given here)”: in assay [4], the degranulation response entry is reported as “little or no degranulation response” and the Immuno-reactivity entry is “None”. The “degranulation response in patient sera” value in assay [4] (Serum 1, 2 and 3, in contrast to Serum 0) is on record as “moderate responses”.

With “Epitope-Lipid 2: Ara h 2 epitope ERDPYSP^OHSQDPYSP^OHS (79-91) lipid conjugate, tested loaded at 2% in nanoallergens (ERDPYS[Hyp]SQDPYS[Hyp]S; also: lipid conjugate, site not given here)”, the “fold lower concentration than Ara h 2 to stimulate degranulation” value in assay [4] (2% epitope 2 lipid, FIG. 2C) is “approximately 10 fold”. In assay [4], the degranulation response entry is on record as “simulate degranulation” and the Immuno-reactivity result was “High”. For the same molecule, the “effect of proline hydroxylations on degranulation response” value in assay [4] (2% loaded nanoallergens, with and without hydroxylations, FIG. 10) is on record as “increase in response when proline hydroxylations are present”. Further, in assay [4] (single patient serum, FIG. 4), the “fold lower concentration than the other immune-reactive epitope nanoallergens to stimulate degranulation” value is listed as “approximately 100 fold”. Also, the BTK phosphorylation entry in assay [5] is recorded as “increase in phosphorylation BTK”.

Take “Epitope-Lipid 3: Ara h 2 epitope SDRLQGRQQ (114-123) lipid conjugate, tested loaded at 2% in nanoallergens (also: lipid conjugate, site not given here)”: the degranulation response result in assay [4] (listed as epitope 3) is “simulate degranulation; also recorded: could trigger degranulation”. In addition, the Immuno-reactivity entry in assay [4] is “Mild”. In addition, the “binding through ELISA” value in assay [6] is given as “did not demonstrate any binding”.

“Epitope-Lipid 4: Ara h 2 epitope RRCQSQLER (28-35) lipid conjugate, tested loaded at 2% in nanoallergens (also: lipid conjugate, site not given here)”: the degranulation response result in assay [4] (listed as epitope 4) is “simulate degranulation; also recorded: little or no degranulation response”. For the same molecule, the “degranulation response in patient sera” value in assay [4] (setting [8]) is listed as “no response”. Besides, the Immuno-reactivity entry in assay [4] is listed as “None”.

Consider “Epitope-Lipid 5: Ara h 2 epitope HASARQQWEL (15-24) lipid conjugate, tested loaded at 2% in nanoallergens (also: lipid conjugate, site not given here)”, for which, in assay [4] (listed as epitope 5), the degranulation response entry is on record as “simulate degranulation; also recorded: could trigger degranulation”. The “degranulation response in patient sera” value in assay [4] (setting [8]) was “moderate responses”. Besides, the Immuno-reactivity result in assay [4] is “Mild”. Further, in assay [6], the “binding through ELISA” value is listed as “did not demonstrate any binding”.

As to “Epitope-Lipid 6: Ara h 2 epitope RQQEQQFKRELRNLPQQ (120-136) lipid conjugate, tested loaded at 2% in nanoallergens (also: lipid conjugate, site not given here)”, in assay [4], the degranulation response entry is “simulate degranulation” and the Immuno-reactivity result was “Mild”. In assay [4] (setting [8]), the “degranulation response in patient sera” value is listed as “moderate responses”.

Take “Epitope-Lipid 7: Ara h 2 epitope PQRCDLE (142-148) lipid conjugate, tested loaded at 2% in nanoallergens (also: lipid conjugate, site not given here)”: in assay [4], the degranulation response result was “simulate degranulation” and the Immuno-reactivity entry was “Low”. Also, the “degranulation response in patient sera” value in assay [4] (setting [8]) is “low responses”.

In the case of “Epitope-Lipid 8: Ara h 2 epitope CDLEVESGGRDRY (145-157) lipid conjugate, tested loaded at 2% in nanoallergens (also: lipid conjugate, site not given here)”, in assay [4], the degranulation response entry was “little or no degranulation response” and the Immuno-reactivity entry is on record as “None”. Besides, the “degranulation response in patient sera” value in assay [4] (all four patient sera, 2% loaded, FIG. 6, listed as epitope 8) was “no response; also recorded: did not demonstrate any degranulation”.

“Pep2: FITC-tagged epitope 2 peptide used in ELISA (ERDPYS[Hyp]SQDPYS[Hyp]S; also: FITC-tagged, site not given here)” registered an EC50 in assay [6] of 465 ± 200 nM.

Turning to “free epitope 2 peptide: free Ara h 2 epitope 2 peptide, used at 100 μM (ERDPYS[Hyp]SQDPYS[Hyp]S)”, the entries for the “effect on Ara h 2 triggered degranulation” value in assay [4] and in assay [4] (listed as free epitope peptide 2) were “only a very small decrease in degranulation response” and “did not prevent Ara h 2 protein from triggering degranulation”, respectively. For the same molecule, in assay [4] (100 μM free peptide 2, FIG. 9), the “effect on nanoallergen degranulation response” value is “can be prevented”.

B1: Ara h2: major peanut allergen, 17.5 kDa 2 S albumin seed storage protein (protein)
chain: RQQWELQGDRRCQSQLERANLRPCEQHLMQKIQRDEDSYGRDPYSPSQDPYSPSQDPDRRDPYSPSPYDRRGAGSSQHQERCCNELNEFENNQRCMCEALQQIMENQSDRLQGRQQEQQFKRELRNLPQQCGLRAPQRCDLEVESGGRDRY
B1 registered a concentration giving a half-maximal response (EC50) in assay [6] of 40 ± 27 nM. Moreover, the “EC50 values in cellular studies” value in assay [7] was “low picomolar range”.

Broadly, the EC50 is the concentration giving half of the maximal effect. As usually defined, the Kd is the equilibrium constant for the complex coming apart.

These data come from patent publication US11638763B2, “Nanoallergens and uses thereof” (University of Notre Dame du Lac, priority 2015, dated 2023).
